Results published in PMC12030534, “Population Pharmacokinetic Modeling of Total and Unbound Pamiparib in Glioblastoma Patients: Insights into Drug Disposition and Dosing Optimization” (Pharmaceutics, 2025).
“And” between values parts separate entries of the source, which are not always exact repeats. Equal values may be shown once. Read-outs that look alike come from different tables or passages of the source. Marks after values point to notes of the source that are not given here.

What was measured:
[1] = system: SCLC PDX models; design: method as in PMID 29330466; details: imaging, cited from earlier work
[2] = system: PARP; design: method as in PMID 23118055; details: cited from earlier work
[3] = Population PK model of total and unbound pamiparib plasma concentrations in glioblastoma patients (Monolix; bootstrap evaluation); assay type: in vivo, human; design: Ka_SD: unit not given here; details: for fraction unbound: oral, 60 mg, read-out: θ4 (Fu); for IIV of CL/F / IIV of Ka / IIV of V/F: (% RSE)
Protocol: The total and unbound pamiparib plasma concentration data used in the population PK analysis were obtained from a phase 0/II study (ClinicalTrials.gov ID: NCT04614909), which enrolled 41 patients with newly diagnosed or recurrent glioblastoma. The protocols were approved by the Institutional Review Board of the Barrow Neurological Institute. Written informed consent was obtained from all participants.
The patients received oral pamiparib (60 mg twice daily) for three days before undergoing surgical tumor resection. Blood samples were collected at predose and at 0.5, 1, 2, 4, 7, and 24 h following the 9th oral dose. Plasma was separated from whole blood by centrifugation at 1000× g and 4 °C for 10 min and then stored at −80 °C until analysis. The total and unbound pamiparib concentrations in plasma samples were quantified using a validated liquid chromatography coupled with tandem mass spectrometry (LC-MS/MS) method.
The population PK model was developed in two steps: (1) basic (structural) model development and (2) covariate model development. All analyses were performed using the nonlinear mixed-effects modeling program MONOLIX version 2024R1 (Lixoft, Antony, France).
The structural model was developed to simultaneously characterize total and unbound pamiparib plasma concentration–time profiles following an oral administration of 9 doses (60 mg, twice daily) in individual glioblastoma patients. A one-compartment model with first-order absorption (without lag time) and first-order elimination was selected to describe the multiple-dose plasma concentration–time data. The primary PK parameters included apparent oral clearance (CL/F), apparent volume of distribution (V/F), absorption rate constant (Ka), and fraction of unbound drug in plasma (Fu). The relationship between total (Cp) and unbound (Cu) drug concentrations was incorporated into the model using the equation Cu = Cp × Fu. All concentration data were log-transformed to stabilize variance and improve model fitting. Population mean PK parameters, interindividual variability, and residual error were assessed in the population PK model. Interindividual variability was modeled using an exponential function, assuming log-normal distribution for all PK parameters.
Various residual error models, including constant, proportional, and combined error models, were evaluated. The combined model, incorporating both proportional and additive error components, was selected as the optimal error model (Equation (1)).(1) yi,j=fti,j,ψi+g(ti,j,ψi,ξ)εi,j Here, ψi is the parameter vector of the structural model f for individual i , and the residual error model is defined by the function g that depends on an additional parameter vector ξ . The residual errors εi,j are standardized Gaussian random variables with a mean of 0 and a standard deviation of 1. In this analysis, the combined error model was defined as g=a+bf^c , where the function g consists of a constant term, a, and a term proportional to the structural model f , with b as the proportionality constant. The parameter vector ξ includes a and b, while c is fixed at 1 by default.
Population mean PK parameters were estimated using the Stochastic Approximation Expectation–Maximization (SAEM) algorithm, a robust method for handling complex nonlinear mixed-effects models. Individual patients’ PK parameter estimates were obtained through post hoc Bayesian estimation, utilizing the conditional distributions derived from the Markov Chain Monte Carlo (MCMC) procedure.
The covariate model was developed using a stepwise approach to systematically identify and incorporate significant covariate effects. Initial screening for potential covariates was conducted using generalized additive modeling (GAM) with R version 4.4.1. The candidate covariates, listed in Table 1, were evaluated based on their relationship with Bayesian-estimated individual pharmacokinetic (PK) parameters from the structural model, including CL/F, V/F, Ka, and Fu. […]

[4] = system: PARP; design: method as in PMID 33264017; details: used as denominator of target engagement ratio; read-out: IC50 for PARP inhibition; cited from earlier work
[5] = system: P-glycoprotein (P-gp); design: method as in PMID 32652442, PMID 39575553; details: cited from earlier work
[6] = system: ABCG2; design: method as in PMID 32652442, PMID 39575553; details: cited from earlier work
[7] = cited from earlier work
[8] = human liver microsomes; cited from earlier work
[9] = design: method as in PMID 33876576; details: cited from earlier work
[10] = cited from earlier work; remark: listed apart in the source
[11] = total pamiparib, base model, 60 mg twice daily oral
[12] = total pamiparib, base model, population mean (% RSE)
[13] = total pamiparib, bootstrap mean
[14] = total pamiparib, final covariate model
[15] = total pamiparib, final covariate model, population mean
[16] = total pamiparib, final covariate model, population mean (% RSE in Table 2)
[17] = unbound pamiparib, base model, population mean (% RSE)
[18] = unbound pamiparib, bootstrap mean
[19] = unbound pamiparib, final covariate model
[20] = unbound pamiparib, final covariate model, population mean
[21] = unbound pamiparib, final covariate model, population mean (% RSE in Table 2)

## O=C(c1cc(Cc2n[nH]c(=O)c3ccccc23)ccc1F)N1CCN(C(=O)C2CC2)CC1 [olaparib]
[1]; ~5-fold of ED50
  dose for complete target engagement: 15 mg/kg
[1]
  dose for 50% target engagement (ED50): 3.17 mg/kg

## Cn1ncnc1[C@H]1c2n[nH]c(=O)c3cc(F)cc(c23)N[C@@H]1c1ccc(F)cc1 [talazoparib]
[2]
  PARP trapping potency relative to olaparib: ~ 100 fold

## C[C@]12CCCN1CC1=NNC(=O)c3cc(F)cc4[nH]c2c1c34 [pamiparib]
[3]; human, plasma, total pamiparib, base model, population mean (% RSE)
  fraction unbound: 0.042
[3]; human, plasma, total pamiparib, bootstrap mean
  fraction unbound: 0.041
[3]; human, plasma, total pamiparib, final covariate model, population mean (% RSE in Table 2)
  fraction unbound: 0.041
[3]; human, plasma, unbound pamiparib, base model, population mean (% RSE)
  fraction unbound: 0.042
[3]; human, plasma, unbound pamiparib, bootstrap mean
  fraction unbound: 0.041
[3]; human, plasma, unbound pamiparib, final covariate model, population mean (% RSE in Table 2)
  fraction unbound: 0.042
[3]; human, plasma, glioblastoma patients, 60 mg twice daily oral, read-out: population mean elimination half-life (T1/2) (converted)
  half-life: ~12 h
[3]; [11]
  TV_CL/F: 2.73 L/h
  TV_V/F: 44 L
[3]; total pamiparib, base model, 60 mg twice daily oral, glioblastoma patients
  TV_KA: 1.64 h⁻¹
[3]; total pamiparib, base model
  IIV of CL/F: 53 (11) %
  IIV of Ka: 397 (18) %
  IIV of V/F: 53 (16) %
[3]; total pamiparib, base model, fraction unbound in plasma
  TV_Fu: 0.042
[3]; [12]
  θ1 (Ka): 1.64 (42) h^−1
  θ2 (V/F): 44 (9.7) L
  θ3 (CL/F): 2.73 (8.0) L/h
[3]; [13]
  Fu_SD: 0.11
  Ka_SD: 1.6
  V/F_SD: 0.35
  β1 (PCC): 0.0089
  β2 (Age): −0.017
  θ2 (V/F): 17 L
[3]; total pamiparib, bootstrap mean (500 replicates)
  θ1 (Ka): 1.71 h⁻¹
[3]; total pamiparib, final covariate model, 60 mg twice daily oral
  TV_KA: 1.58 h⁻¹
[3]; [14]
  IIV of CL/F: 50% and 50 (11) %
  IIV of Ka: 410 (20) %
  IIV of V/F: 41 (17) %
[3]; total pamiparib, final covariate model, at median PCC 111.5
  TV_V/F: 44 L and 44 ^† L
[3]; total pamiparib, final covariate model, at median age 60
  TV_CL/F: 2.59 L/h and 2.59 ^‡ L/h
[3]; total pamiparib, final covariate model, fraction unbound in plasma
  TV_Fu: 0.041
[3]; [15]
  Fu_SD: 0.12
  Ka_SD: 1.7
  V/F_SD: 0.39
[3]; [16]
  θ1 (Ka): 1.58 (42) h^−1 and 1.58 h^−1
  θ2 (V/F): 15 (28) L and 15 L
[3]; unbound pamiparib, base model
  TV_CL/F: 65.0 L/h
  TV_Fu: 0.042
  TV_V/F: 1017 L
  IIV of CL/F: 54 (11) %
  IIV of Ka: 612 (21) %
  IIV of V/F: 50 (17) %
[3]; unbound pamiparib, base model, 60 mg twice daily oral
  TV_KA: 1.55 h⁻¹
[3]; [17]
  θ1 (Ka): 1.55 (51) h^−1
  θ2 (V/F): 1017 (9.1) L
  θ3 (CL/F): 65.0 (8.2) L/h
[3]; [18]
  Fu_SD: 0.11
  Ka_SD: 1.66
  V/F_SD: 0.35
  β1 (PCC): 0.0083
  β2 (Age): −0.016
  θ2 (V/F): 441 L
[3]; unbound pamiparib, bootstrap mean (500 replicates)
  θ1 (Ka): 1.86 h⁻¹
[3]; [19]
  TV_Fu: 0.042
  TV_KA: 1.7 h⁻¹
  IIV of CL/F: 52(11) %
  IIV of Ka: 380 (20) %
  IIV of V/F: 41 (19) %
[3]; unbound pamiparib, final covariate model, at median PCC 111.5
  TV_V/F: 1060 ^† L
[3]; unbound pamiparib, final covariate model, at median age 60
  TV_CL/F: 62.5 ^‡ L/h
[3]; [20]
  Fu_SD: 0.11
  Ka_SD: 1.66
  V/F_SD: 0.39
[3]; [21]
  θ1 (Ka): 1.7 (44) h^−1 and 1.7 h^−1
  θ2 (V/F): 402 (28) L and 402 L
[4]
  IC50: ~1 nM and 1 nM
[2]; compared with other PARP inhibitors
  PARP trapping potency: surpassing olaparib and rucaparib but slightly weaker than niraparib and much weaker than talazoparib
[5]
  substrate of P-glycoprotein (P-gp) / ABCB1: not a substrate
[6]
  substrate of efflux transporter ABCG2: not a substrate
[7]
  LogP: 2.03
[8]
  intrinsic clearance: low
[9]; pamiparib and its metabolites
  fecal excretion, share of total radioactivity: ~27%
  renal excretion, share of total radioactivity: approximately 58%
[9]; patients with solid tumors
  unchanged pamiparib as share of total radioactivity in plasma: 67%
[10]
  maximum tolerated dose in monotherapy: 60 mg BID
[10]; first in-human study BGB-290-AU-002
  T1/2: 13 h

## oxy-dehydro pamiparib [M3]
[9]; human plasma, urine, and feces
  metabolite abundance: most abundant metabolite
